In the CheMixHub viscosity set:

Experiment: xn = mol fraction of the nth substance listed

C=CCn1cc[n+](C)c1.O=S(=O)([N-]S(=O)(=O)C(F)(F)F)C(F)(F)F + CCCO
Conditions | viscosity [mPa·s]
313.15 K, 100 kPa, x1 = 0.8974 | 15.85

CC(=O)N(C)C + CCCO
viscosity [mPa·s]
Conditions | 298.15 K | 303.15 K | 313.15 K
100 kPa, x1 = 0.0535 | 1.767 | – | 1.29
100 kPa, x1 = 0.1052 | 1.618 | – | 1.206
100 kPa, x1 = 0.2053 | 1.423 | – | 1.093
100 kPa, x1 = 0.3066 | 1.285 | – | 1.008
100 kPa, x1 = 0.407 | 1.197 | – | 0.948
100 kPa, x1 = 0.5061 | 1.143 | – | 0.904
100 kPa, x1 = 0.5984 | 1.097 | – | 0.8744
100 kPa, x1 = 0.701 | 1.045 | – | 0.8402
100 kPa, x1 = 0.8014 | 0.9977 | – | 0.8138
100 kPa, x1 = 0.9025 | 0.9648 | – | 0.7886
100 kPa, x1 = 0.9583 | 0.944 | – | 0.7749
101 kPa, x1 = 0.0966 | – | 1.47 | –
101 kPa, x1 = 0.1975 | – | 1.293 | –
101 kPa, x1 = 0.2992 | – | 1.193 | –
101 kPa, x1 = 0.3986 | – | 1.103 | –
101 kPa, x1 = 0.4894 | – | 1.048 | –
101 kPa, x1 = 0.6025 | – | 1 | –
101 kPa, x1 = 0.697 | – | 0.963 | –
101 kPa, x1 = 0.7955 | – | 0.93 | –
101 kPa, x1 = 0.9012 | – | 0.898 | –

CC(=O)N1CCOCC1 + CCCO
viscosity [mPa·s], 101 kPa
Conditions | 293.15 K | 303.15 K | 313.15 K | 323.15 K
x1 = 0.0542 | 3.211 | 2.607 | 2.089 | 1.678
x1 = 0.1279 | 4.268 | 3.591 | 2.958 | 2.472
x1 = 0.2156 | 5.382 | 4.614 | 3.842 | 3.268
x1 = 0.2811 | 6.079 | 5.246 | 4.369 | 3.728
x1 = 0.3166 | 6.397 | 5.529 | 4.598 | 3.925
x1 = 0.3902 | 6.922 | 5.978 | 4.928 | 4.183
x1 = 0.4533 | 7.294 | 6.294 | 5.142 | 4.331
x1 = 0.5022 | 7.478 | 6.414 | 5.189 | 4.331
x1 = 0.5437 | 7.679 | 6.578 | 5.289 | 4.388
x1 = 0.5983 | 7.857 | 6.703 | 5.329 | 4.375
x1 = 0.6341 | 7.889 | 6.699 | 5.267 | 4.277
x1 = 0.6883 | 8.018 | 6.776 | 5.259 | 4.214
x1 = 0.7442 | 8.069 | 6.769 | 5.161 | 4.062
x1 = 0.7912 | 8.099 | 6.748 | 5.069 | 3.922
x1 = 0.8542 | 8.178 | 6.766 | 4.986 | 3.776
x1 = 0.9165 | 8.328 | 6.851 | 4.972 | 3.702
x1 = 0.9776 | 8.508 | 7.001 | 5.093 | 3.823

CCCCCCCCCO + CCCO
viscosity [mPa·s], 101 kPa
Conditions | 298.15 K | 308.15 K | 318.15 K
x2 = 0.05 | 8.682 | 6.217 | 4.482
x2 = 0.1 | 8.263 | 5.92 | 4.293
x2 = 0.15 | 7.846 | 5.632 | 4.11
x2 = 0.2 | 7.432 | 5.351 | 3.929
x2 = 0.25 | 7.022 | 5.076 | 3.752
x2 = 0.3 | 6.618 | 4.806 | 3.575
x2 = 0.35 | 6.22 | 4.542 | 3.399
x2 = 0.4 | 5.83 | 4.282 | 3.223
x2 = 0.45 | 5.447 | 4.026 | 3.046
x2 = 0.5 | 5.073 | 3.774 | 2.869
x2 = 0.55 | 4.708 | 3.525 | 2.691
x2 = 0.6 | 4.352 | 3.279 | 2.514
x2 = 0.65 | 4.005 | 3.037 | 2.337
x2 = 0.7 | 3.668 | 2.798 | 2.161
x2 = 0.75 | 3.34 | 2.563 | 1.988
x2 = 0.8 | 3.022 | 2.332 | 1.819
x2 = 0.85 | 2.712 | 2.106 | 1.656
x2 = 0.9 | 2.412 | 1.884 | 1.5
x2 = 0.95 | 2.12 | 1.668 | 1.354

CC(=O)N(C)C + CCO
viscosity [mPa·s], 101 kPa
Conditions | 298.15 K | 303.15 K | 308.15 K | 313.15 K | 318.15 K
x1 = 0.0653 | – | 0.9549 | 0.8702 | 0.8052 | 0.7371
x1 = 0.0809 | – | 0.944 | – | – | –
x1 = 0.1358 | 0.9918 | 0.9129 | 0.8423 | 0.7795 | 0.716
x1 = 0.1399 | – | 0.915 | – | – | –
x1 = 0.2001 | – | 0.894 | – | – | –
x1 = 0.2123 | 0.9588 | 0.8868 | 0.8171 | 0.7631 | 0.7077
x1 = 0.2626 | – | 0.878 | – | – | –
x1 = 0.2954 | 0.9368 | 0.8691 | 0.8034 | 0.7509 | 0.6996
x1 = 0.3738 | – | 0.865 | – | – | –
x1 = 0.386 | 0.9289 | 0.8634 | 0.7995 | 0.751 | 0.6999
x1 = 0.4854 | 0.928 | 0.8622 | 0.8019 | 0.753 | 0.7022
x1 = 0.4935 | – | 0.861 | – | – | –
x1 = 0.5947 | 0.9232 | 0.8595 | 0.7991 | 0.7552 | 0.7034
x1 = 0.5953 | – | 0.862 | – | – | –
x1 = 0.6938 | – | 0.863 | – | – | –
x1 = 0.7155 | 0.9273 | 0.8639 | 0.8093 | – | 0.7108
x1 = 0.7965 | – | 0.865 | – | – | –
x1 = 0.8498 | 0.9421 | 0.8705 | 0.81 | – | 0.7156
x1 = 0.8971 | – | 0.867 | – | – | –
